# Data: patent US20260092071A1, “COMPOUNDS AND COMPOSITIONS AS SMARCA2/4 DEGRADERS AND USES THEREOF” (REGENTS OF THE UNIVERSITY OF MICHIGAN, priority 2022, published 2026)
# How the values were obtained:
# [1] = target: SMARCA2 (Homo sapiens, UniProt P51531); test: HiBit assay in engineered HT1080 CRISPR knock-in cell, 6 hrs (B series), SMARCA2; assay type: cell-based; settings: 6 hrs incubation; for DC50: read-out: SMARC A2 HT1080 HiBit DC50; for Dmax: HT-1080, HT1080 CRISPR knock-in cells, read-out: SMARC A2 HT1080 HiBit Dmax (%)
# Protocol: (§1) The HiBit assay was performed using engineered HT1080 CRISPR knock-in cell utilizing the Nano-Glo HiBiT Lytic Detection System from Promega, Cat #N3040. Compounds were transferred, 25 nL DMSO or test compounds (final DMSO @ 0.1%) to intermediate plates (Corning3570) using ECHO550. Cells were seeded onto compounds at 2000 cells/25 μL/well and incubated for 6 hrs in a tissue culture incubator at 37° C. and 5% CO2. The LgBiT Protein was diluted at 1:100 and the Nano-Glo® HiBIT Lytic Substrate 1:50 into an appropriate volume of room temperature using the Nano-Glo® HiBiT Lytic Buffer. At the end of compound incubation time, 15 ul of the detection reagent was added to each well (without LgBiT for negative control wells) using the Thermo Scientific multidrop combi. The plate was shaken for 10 mins at RT using Combi. After briefly centrifugation (2000 rpm 1 mins), plate was read on Envision (Ultrasensitive luminescence model).
# [2] = target: SMARCA4 (Homo sapiens, UniProt P51532); test: HiBit assay in engineered HT1080 CRISPR knock-in cell, 6 hrs (B series), SMARCA4; assay type: cell-based; settings: 6 hrs incubation; for DC50: read-out: SMARC A4 HT1080 HiBit DC50; for Dmax: HT-1080, HT1080 CRISPR knock-in cells, read-out: SMARC A4 HT1080 HiBit Dmax(%)
# Protocol: as §1
# SMARCA2, sequence (P51531 whole entry): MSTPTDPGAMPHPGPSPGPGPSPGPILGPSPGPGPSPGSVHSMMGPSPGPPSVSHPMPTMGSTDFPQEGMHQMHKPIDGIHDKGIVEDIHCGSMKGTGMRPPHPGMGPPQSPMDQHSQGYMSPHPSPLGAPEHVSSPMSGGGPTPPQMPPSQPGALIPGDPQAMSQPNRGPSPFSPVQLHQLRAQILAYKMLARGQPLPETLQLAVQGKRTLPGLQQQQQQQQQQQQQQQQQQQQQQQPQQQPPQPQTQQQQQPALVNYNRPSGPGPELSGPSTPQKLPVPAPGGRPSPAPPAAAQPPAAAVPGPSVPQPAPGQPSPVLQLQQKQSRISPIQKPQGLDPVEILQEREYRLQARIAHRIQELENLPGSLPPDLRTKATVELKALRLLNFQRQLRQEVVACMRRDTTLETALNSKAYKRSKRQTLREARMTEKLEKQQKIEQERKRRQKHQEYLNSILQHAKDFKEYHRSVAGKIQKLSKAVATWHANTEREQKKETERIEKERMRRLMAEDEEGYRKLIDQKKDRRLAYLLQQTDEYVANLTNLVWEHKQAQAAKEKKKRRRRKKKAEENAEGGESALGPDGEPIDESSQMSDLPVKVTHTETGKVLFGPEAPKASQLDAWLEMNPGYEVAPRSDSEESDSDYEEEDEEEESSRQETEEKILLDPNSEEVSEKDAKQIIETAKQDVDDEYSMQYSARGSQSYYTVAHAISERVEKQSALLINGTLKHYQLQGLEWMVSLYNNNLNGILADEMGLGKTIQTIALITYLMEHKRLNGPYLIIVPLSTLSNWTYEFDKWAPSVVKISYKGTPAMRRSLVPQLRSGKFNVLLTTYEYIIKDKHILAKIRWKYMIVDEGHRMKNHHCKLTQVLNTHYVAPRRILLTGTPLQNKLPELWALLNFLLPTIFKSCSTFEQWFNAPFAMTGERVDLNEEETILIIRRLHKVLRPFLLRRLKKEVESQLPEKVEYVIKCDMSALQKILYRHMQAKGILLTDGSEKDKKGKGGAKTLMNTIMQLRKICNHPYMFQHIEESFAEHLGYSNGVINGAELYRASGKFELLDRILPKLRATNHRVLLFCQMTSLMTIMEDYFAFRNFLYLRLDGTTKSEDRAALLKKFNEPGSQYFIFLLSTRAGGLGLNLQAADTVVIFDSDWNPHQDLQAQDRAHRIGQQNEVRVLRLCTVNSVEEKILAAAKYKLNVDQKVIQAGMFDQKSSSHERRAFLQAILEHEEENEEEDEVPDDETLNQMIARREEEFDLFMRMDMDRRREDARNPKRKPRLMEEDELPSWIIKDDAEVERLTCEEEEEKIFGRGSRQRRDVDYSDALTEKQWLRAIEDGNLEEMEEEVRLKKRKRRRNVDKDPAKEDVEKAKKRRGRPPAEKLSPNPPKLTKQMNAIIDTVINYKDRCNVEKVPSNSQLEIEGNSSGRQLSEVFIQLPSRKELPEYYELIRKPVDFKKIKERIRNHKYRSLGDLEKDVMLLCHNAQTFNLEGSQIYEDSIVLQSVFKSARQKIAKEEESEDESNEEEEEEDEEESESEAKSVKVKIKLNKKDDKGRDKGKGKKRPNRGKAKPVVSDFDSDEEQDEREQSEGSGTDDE
# SMARCA4, sequence (P51532 whole entry): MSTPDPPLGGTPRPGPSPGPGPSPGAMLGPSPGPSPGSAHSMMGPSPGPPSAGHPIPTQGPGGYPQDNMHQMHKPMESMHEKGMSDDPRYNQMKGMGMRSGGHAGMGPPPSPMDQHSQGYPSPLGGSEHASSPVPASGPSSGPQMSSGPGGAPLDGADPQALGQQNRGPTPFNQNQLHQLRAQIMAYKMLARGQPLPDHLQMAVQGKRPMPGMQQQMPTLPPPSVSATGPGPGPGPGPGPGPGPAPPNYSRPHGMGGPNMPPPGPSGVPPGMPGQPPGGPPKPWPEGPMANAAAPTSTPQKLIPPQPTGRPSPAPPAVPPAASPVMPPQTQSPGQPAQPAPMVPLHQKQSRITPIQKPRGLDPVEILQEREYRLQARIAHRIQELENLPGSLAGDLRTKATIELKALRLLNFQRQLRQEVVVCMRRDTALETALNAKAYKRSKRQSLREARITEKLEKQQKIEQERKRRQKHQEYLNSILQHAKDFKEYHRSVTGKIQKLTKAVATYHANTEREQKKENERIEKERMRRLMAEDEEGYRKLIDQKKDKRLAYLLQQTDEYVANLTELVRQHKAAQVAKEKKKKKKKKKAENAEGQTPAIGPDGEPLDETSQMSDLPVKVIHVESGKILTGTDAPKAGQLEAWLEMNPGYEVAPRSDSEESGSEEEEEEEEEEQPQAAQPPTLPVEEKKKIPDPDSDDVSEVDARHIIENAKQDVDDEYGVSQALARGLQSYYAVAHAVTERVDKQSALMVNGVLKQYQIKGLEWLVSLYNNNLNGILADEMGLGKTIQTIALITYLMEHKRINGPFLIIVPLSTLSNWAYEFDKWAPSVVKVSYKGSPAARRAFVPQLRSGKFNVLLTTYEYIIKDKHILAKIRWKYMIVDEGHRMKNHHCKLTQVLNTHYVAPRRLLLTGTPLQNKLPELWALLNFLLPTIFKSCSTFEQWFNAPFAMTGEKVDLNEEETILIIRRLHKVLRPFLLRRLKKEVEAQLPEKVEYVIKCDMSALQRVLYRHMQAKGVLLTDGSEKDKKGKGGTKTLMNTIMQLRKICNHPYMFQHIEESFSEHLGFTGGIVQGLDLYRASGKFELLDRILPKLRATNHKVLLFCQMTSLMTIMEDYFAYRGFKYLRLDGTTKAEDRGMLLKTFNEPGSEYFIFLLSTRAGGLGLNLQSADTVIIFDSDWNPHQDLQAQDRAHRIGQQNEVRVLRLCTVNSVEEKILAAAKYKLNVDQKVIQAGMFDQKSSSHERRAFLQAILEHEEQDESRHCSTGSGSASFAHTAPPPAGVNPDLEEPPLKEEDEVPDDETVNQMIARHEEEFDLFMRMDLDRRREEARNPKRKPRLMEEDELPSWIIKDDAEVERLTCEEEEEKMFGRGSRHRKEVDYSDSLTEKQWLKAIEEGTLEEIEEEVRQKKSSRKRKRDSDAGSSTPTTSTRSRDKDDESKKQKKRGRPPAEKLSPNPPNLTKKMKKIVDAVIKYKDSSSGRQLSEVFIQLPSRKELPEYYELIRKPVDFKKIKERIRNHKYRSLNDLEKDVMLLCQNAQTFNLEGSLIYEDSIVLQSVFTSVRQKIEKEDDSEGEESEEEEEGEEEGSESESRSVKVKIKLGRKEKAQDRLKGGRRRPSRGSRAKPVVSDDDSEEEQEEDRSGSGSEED
Structure (SMILES),DC50 ([1]; HT1080 CRISPR knock-in cells) [nM],Dmax [1] [%],DC50 ([2]; HT1080 CRISPR knock-in cells) [nM],Dmax [2] [%],SMARC A2 HT1080 HiBit Dmax (%) ([1]; HT1080 CRISPR knock-in cells),SMARC A4 HT1080 HiBit Dmax(%) ([2]; HT1080 CRISPR knock-in cells)
"Cc1ncsc1-c1ccc([C@H](C)NC(=O)[C@@H]2C[C@@H](O)CN2C(=O)[C@@H](c2cc(N3CCC(CN4CCC(c5ccc6c(c5)C(C)(C)c5nc(=O)c7c(Cl)cccc7n5-6)CC4)CC3)no2)C(C)C)cc1 [Compound B9, (2S,4R)-1-((R)-2-(3-(4-((4-(4-chloro-7,7-dimethyl-5-oxo-5,7-dihydroindolo[1,2-a]quinazolin-9-yl)piperidin-1-yl)methyl)piperidin-1-yl)isoxazol-5-yl)-3-methylbutanoyl)-4-hydroxy-N—((S)-1-(4-(4-methylthiazol-5-yl)phenyl)ethyl)pyrrolidine-2-carboxamide]",< 100,> 90,< 100,> 90,,
"Cc1ncsc1-c1ccc([C@H](C)NC(=O)[C@@H]2C[C@@H](O)CN2C(=O)[C@@H](c2cc(N3CCC(CN4CCC(c5cccc6c5C(C)(C)c5nc(=O)c7c(Cl)cccc7n5-6)CC4)CC3)no2)C(C)C)cc1 [Compound B10, (2S,4R)-1-((R)-2-(3-(4-((4-(4-chloro-7,7-dimethyl-5-oxo-5,7-dihydroindolo[1,2-a]quinazolin-8-yl)piperidin-1-yl)methyl)piperidin-1-yl)isoxazol-5-yl)-3-methylbutanoyl)-4-hydroxy-N—((S)-1-(4-(4-methylthiazol-5-yl)phenyl)ethyl)pyrrolidine-2-carboxamide]",< 100,> 90,< 100,70 to 90,,
"Cc1ncsc1-c1ccc([C@H](C)NC(=O)[C@@H]2C[C@@H](O)CN2C(=O)[C@@H](c2cc(OCCCN3CCC(c4ccc5c(c4)C(C)(C)c4nc(=O)c6c(Cl)cccc6n4-5)CC3)no2)C(C)C)cc1 [Compound B11, (2S,4R)-1-((R)-2-(3-(3-(4-(4-chloro-7,7-dimethyl-5-oxo-5,7-dihydroindolo[1,2-a]quinazolin-9-yl)piperidin-1-yl)propoxy)isoxazol-5-yl)-3-methylbutanoyl)-4-hydroxy-N-((S)-1-(4-(4-methylthiazol-5-yl)phenyl)ethyl)pyrrolidine-2-carboxamide]",< 100,> 90,< 100,> 90,,
"Cc1ncsc1-c1ccc([C@H](C)NC(=O)[C@@H]2C[C@@H](O)CN2C(=O)[C@@H](c2cc(OCCCCN3CCC(c4ccc5c(c4)C(C)(C)c4nc(=O)c6c(Cl)cccc6n4-5)CC3)no2)C(C)C)cc1 [Compound B12, (2S,4R)-1-((R)-2-(3-(4-(4-(4-chloro-7,7-dimethyl-5-oxo-5,7-dihydroindolo[1,2-a]quinazolin-9-yl)piperidin-1-yl)butoxy)isoxazol-5-yl)-3-methylbutanoyl)-4-hydroxy-N-((S)-1-(4-(4-methylthiazol-5-yl)phenyl)ethyl)pyrrolidine-2-carboxamide]",< 100,> 90,< 100,> 90,,
"Cc1ncsc1-c1ccc([C@H](C)NC(=O)[C@@H]2C[C@@H](O)CN2C(=O)[C@@H](NC(=O)C2CC(N3CCC(c4ccc5c(c4)C(C)(C)c4nc(=O)c6c(Cl)cccc6n4-5)CC3)C2)C(C)(C)C)cc1 (stereo partly drawn) [Compound B13, (2S,4R)-1-((2S)-2-(3-(4-(4-chloro-7,7-dimethyl-5-oxo-5,7-dihydroindolo[1,2-a]quinazolin-9-yl)piperidin-1-yl)cyclobutane-1-carboxamido)-3,3-dimethylbutanoyl)-4-hydroxy-N-((S)-1-(4-(4-methylthiazol-5-yl)phenyl)ethyl)pyrrolidine-2-carboxamide]",< 100,70 to 90,100 to 500,< 50,,
"Cc1ncsc1-c1ccc([C@H](C)NC(=O)[C@@H]2C[C@@H](O)CN2C(=O)[C@@H](NC(=O)C2CC(N3CCC(c4ccc5c(c4)C(C)(C)c4nc(=O)c6c(Cl)cccc6n4-5)CC3)C2)C(C)(C)C)cc1 (stereo partly drawn) [Compound B14, (2S,4R)-1-((2S)-2-(3-(4-(4-chloro-7,7-dimethyl-5-oxo-5,7-dihydroindolo[1,2-a]quinazolin-9-yl)piperidin-1-yl)cyclobutane-1-carboxamido)-3,3-dimethylbutanoyl)-4-hydroxy-N-((S)-1-(4-(4-methylthiazol-5-yl)phenyl)ethyl)pyrrolidine-2-carboxamide]",< 100,,100 to 500,,A (A (>90% degradation)),B (B (70-90% degradation))
"Cc1ncsc1-c1ccc([C@H](C)NC(=O)[C@@H]2C[C@@H](O)CN2C(=O)C(c2cc(CCN3CCC(c4ccc5c(c4)C(C)(C)c4nc(=O)c6c(Cl)cccc6n4-5)CC3)no2)C(C)C)cc1 (stereo partly drawn) [Compound B15, (2S,4R)-1-(2-(3-(2-(4-(4-chloro-7,7-dimethyl-5-oxo-5,7-dihydroindolo[1,2-a]quinazolin-9-yl)piperidin-1-yl)ethyl)isoxazol-5-yl)-3-methylbutanoyl)-4-hydroxy-N-((S)-1-(4-(4-methylthiazol-5-yl)phenyl)ethyl)pyrrolidine-2-carboxamide]",< 100,> 90,< 100,> 90,,
"Cc1ncsc1-c1ccc([C@H](C)NC(=O)[C@@H]2C[C@@H](O)CN2C(=O)[C@@H](NC(=O)c2cccc(CN3CCC(c4ccc5c(c4)C(C)(C)c4nc(=O)c6c(Cl)cccc6n4-5)CC3)c2)C(C)(C)C)cc1 [Compound B16, (2S,4R)-1-((S)-2-(3-((4-(4-chloro-7,7-dimethyl-5-oxo-5,7-dihydroindolo[1,2-a]quinazolin-9-yl)piperidin-1-yl)methyl)benzamido)-3,3-dimethylbutanoyl)-4-hydroxy-N—((S)-1-(4-(4-methylthiazol-5-yl)phenyl)ethyl)pyrrolidine-2-carboxamide]",< 100,> 90,< 100,70 to 90,,
"Cc1ncsc1-c1ccc([C@H](C)NC(=O)[C@@H]2C[C@@H](O)CN2C(=O)[C@H](C(C)C)n2cc(CCN3CCC(c4ccc5c(c4)C(C)(C)c4nc(=O)c6c(Cl)cccc6n4-5)CC3)nn2)cc1 [Compound B17, (2S,4R)-1-((S)-2-(4-(2-(4-(4-chloro-7,7-dimethyl-5-oxo-5,7-dihydroindolo[1,2-a]quinazolin-9-yl)piperidin-1-yl)ethyl)-1H-1,2,3-triazol-1-yl)-3-methylbutanoyl)-4-hydroxy-N-((S)-1-(4-(4-methylthiazol-5-yl)phenyl)ethyl)pyrrolidine-2-carboxamide]",< 100,> 90,< 100,> 90,,
"Cc1ncsc1-c1ccc([C@H](C)NC(=O)[C@@H]2C[C@@H](O)CN2C(=O)[C@@H](NC(=O)C23CCC(CN4CCC(c5ccc6c(c5)C(C)(C)c5nc(=O)c7c(Cl)cccc7n5-6)CC4)(CC2)C3)C(C)(C)C)cc1 [Compound B18, (2S,4R)-1-((S)-2-(4-((4-(4-chloro-7,7-dimethyl-5-oxo-5,7-dihydroindolo[1,2-a]quinazolin-9-yl)piperidin-1-yl)methyl)bicyclo[2.2.1]heptane-1-carboxamido)-3,3-dimethylbutanoyl)-4-hydroxy-N-((S)-1-(4-(4-methylthiazol-5-yl)phenyl)ethyl)pyrrolidine-2-carboxamide]",< 100,> 90,< 100,70 to 90,,
"Cc1ncsc1-c1ccc([C@H](C)NC(=O)[C@@H]2C[C@@H](O)CN2C(=O)[C@H](C(C)C)n2cc(C3CCC(CN4CCC(c5ccc6c(c5)C(C)(C)c5nc(=O)c7c(Cl)cccc7n5-6)CC4)CC3)nn2)cc1 (stereo partly drawn) [Compound B19, (2S,4R)-1-((S)-2-(4-(4-((4-(4-chloro-7,7-dimethyl-5-oxo-5,7-dihydroindolo[1,2-a]quinazolin-9-yl)piperidin-1-yl)methyl)cyclohexyl)-1H-1,2,3-triazol-1-yl)-3-methylbutanoyl)-4-hydroxy-N-((S)-1-(4-(4-methylthiazol-5-yl)phenyl)ethyl)pyrrolidine-2-carboxamide]",< 100,> 90,100 to 500,70 to 90,,
"Cc1ncsc1-c1ccc([C@H](C)NC(=O)[C@@H]2C[C@@H](O)CN2C(=O)[C@@H](NC(=O)c2ccc(CN3CCC(c4ccc5c(c4)C(C)(C)c4nc(=O)c6c(Cl)cccc6n4-5)CC3)s2)C(C)(C)C)cc1 [Compound B20, (2S,4R)-1-((S)-2-(5-((4-(4-chloro-7,7-dimethyl-5-oxo-5,7-dihydroindolo[1,2-a]quinazolin-9-yl)piperidin-1-yl)methyl)thiophene-2-carboxamido)-3,3-dimethylbutanoyl)-4-hydroxy-N-((S)-1-(4-(4-methylthiazol-5-yl)phenyl)ethyl)pyrrolidine-2-carboxamide]",< 100,> 90,< 100,70 to 90,,
